{"source": "patent US20260337177A1", "about": "“TEAD CORE INHIBITORS FOR CANCER THERAPEUTICS” (University of Florida Research Foundation, Incorporated, priority 2023, published 2026)", "key": {"HepG2 cells [1]": {"test_system": "HepG2 cells", "assay": "HepG2 cell growth inhibition", "format": "cell-based", "conditions": "Homo sapiens, FIG. 25A"}, "TEAD2-YBD": {"target": "TEAD2-YBD (Homo sapiens, UniProt Q15562)", "sequence (Q15562 217-447)": "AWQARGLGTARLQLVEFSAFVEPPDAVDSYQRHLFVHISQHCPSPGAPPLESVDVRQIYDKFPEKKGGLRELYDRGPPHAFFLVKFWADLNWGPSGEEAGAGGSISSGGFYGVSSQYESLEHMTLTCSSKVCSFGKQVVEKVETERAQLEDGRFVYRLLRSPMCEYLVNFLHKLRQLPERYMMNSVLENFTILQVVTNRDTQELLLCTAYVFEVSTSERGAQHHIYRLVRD", "assay": "Intact protein mass spectrometry, covalent modification of TEAD2-YBD", "format": "binding", "excerpt": "(§1) To substantiate the covalent interaction between Compound 22 and TEAD2-YBD, intact mass spectrometry was employed to monitor the protein's mass change upon binding with the compound.\n(§2) Human TEAD2-YBD (217-447) (TEAD2_HUMAN, UniProtKB Q15562) was expressed and purified as previously described.^79 To eliminate endogenous palmitoylation, Cys380Ser mutant (TEAD2-C380S) was generated and purified using the same protocol. [00392]hTEAD2 was expressed, purified, and deacylated as reported.^52 Briefly, the yap-binding domain (YBD) of […] was cloned in pET28a vector with the N terminal 6x His tag. The recombinant protein was induced at 16 ° C using 0.2 mM isopropyl bD-1-thiogalactopyranoside (IPTG) for 10 h for overexpression in Escherichia coli strain BL2 (DE3) CodonPlus competent cells (Invitrogen). Then cells were harvested, followed by lysis and the supernatant was loaded onto the HisTrap FF column (GE Healthcare). The hTEAD4-YBD was eluted with elution buffer (50 mM Hepes 8.0, 300 mM NaCl, 10% Glycerol, 1 mM TCEP, 125 mM imidazole). To eliminate the endogenous fatty acid, the protein was incubated with 0.2 mM hydroxylamine for 2 h and further purified through gel filtration chromatography in the final buffer (25 mM Hepes pH 8.0, 100 mM NaCl, 1 mM TCEP, and 5% glycerol). Collected fractions were concentrated to 5 mg/mL and flash frozen for further use. […]"}, "Huh7 cells [2]": {"test_system": "Huh7 cells", "assay": "MTT assay, Huh7 viability", "format": "cell-based, human", "conditions": "FIG. 9"}, "Huh7 xenograft": {"test_system": "Huh7 xenograft", "assay": "Huh7 mouse xenograft model, antitumor efficacy", "format": "in vivo, NSG mouse", "description": "Based on the favorable in vitro potency and low toxicity, the in vivo antitumor efficacy of compound 22 was further evaluated in the NSG mouse (NOD scid gamma mouse) xenograft model from human Huh7 cells. Sorafenib, the first-line treatment for primary hepatocellular carcinoma (HCC) patients, served as the control. Compound 22 was tested as a monotherapy and in combination with Sorafenib.\nThe animals were administered 10 mg/kg of compound 22 twice a week for four weeks via intraperitoneal (IP) injection.\nThe mice were administered 50 mg/kg of compound 22 every three day for 24 days via intraperitoneal (IP) injection. Sorafenib was administered orally at a dose of 100 mg/kg following the same schedule.\nTumors were implanted by subcutaneous injection of 5×10^6 Huh7 cells in 100 μL of PBS containing 10% matrix gel (Coming, NY, USA), into the right flank of the mouse. When the tumor volume reached about 85 mm^3, mice were randomized into the vehicle control group (n=5) and a treatment group (n=5). The vehicle group (n=5) received the vehicle only (50% phosal 50 PG, 45% miglyol 810 N and 5% polysorbate 80), while the treatment group (n=5) was given compound 22 (50 mg/kg in 50% phosal 50 PG, 45% miglyol 810 N and 5% polysorbate 80) via IP injection every three days. After 24 days, mice were euthanized. Sorafenib (100 mg/kg, every three day) was dissolved in 75% Ethanol and Cremophor EL (1:1) and administered directly into the animals' stomachs using a gastric probe. Tumor size and body weight were measured every 3 days, and tumor volume was estimated using the formula volume=½×length×width^2. Tumor growth inhibition value (TGI) was calculated as TGI (%) [1−Vt/Vc]×100, where Vc and Vt were […]."}, "Huh7 cells [3]": {"test_system": "Huh7 cells", "assay": "Colony formation (clonogenic) assay, Huh7", "format": "cell-based", "conditions": "Homo sapiens, Huh-7, 48 h, read-out: Colony formation, rate of inhibition, Huh7", "description": "(§3) The ability of compound 22 to inhibit the proliferation of liver cancer cell lines Huh7 and HepG2 was further assessed using a clonogenic assay.\n(§4) Huh7 or HepG2 (500 cells/well) were plated into 6 well plates (500 cells per well) and treated with 0 or 5 μM compound 22. Colonies were grown in the absence of soft agar for 2 weeks in a humidified atmosphere of 5% C02 at 37 ° C Crystal violet blue solution (Sigma) was used to stain the colonies for one hour and fixed in methanol followed by counting under a microscope. Triplicate wells were used for each cell line and three independent experiments were performed."}, "HepG2 cells [4]": {"test_system": "HepG2 cells", "assay": "Colony formation (clonogenic) assay, HepG2", "format": "cell-based", "conditions": "Homo sapiens, 48 h, read-out: Colony formation, rate of inhibition, HepG2", "description": "as §3, §4"}, "TEAD2-YBD C380S": {"target": "TEAD2-YBD C380S (Homo sapiens, UniProt Q15562, C380S)", "sequence (Q15562 217-447 C380S)": "as the sequence (Q15562 217-447) above, with C164S counted along it", "assay": "Intact protein mass spectrometry, TEAD2-YBD C380S variant", "format": "binding", "conditions": "15 hours", "excerpt": "as §1, §2"}}, "data": [{"compound": "O=C(CCl)c1c[nH]c2cc(Cl)c(OCc3cccc(C(F)(F)F)c3)cc12", "note": "[Compound 22, 2-chloro-1-(6-chloro-5-((3-(trifluoromethyl)benzyl)oxy)-1H-indol-3-yl)ethan-1-one]", "values": [{"measurement": "IC50", "setting": "HepG2 cells [1]", "result": 2400, "unit": "nM"}, {"measurement": "Labeling of TEAD2-YBD", "setting": "TEAD2-YBD; 15 hours at room temperature", "result": "completely labeled with a single molecule"}, {"measurement": "Intact mass shift of TEAD2-YBD", "setting": "TEAD2-YBD; excess compound, covalent complex, room temperature", "result": 365.5581, "unit": "Da"}, {"measurement": "Huh7 viability, MTT assay", "setting": "Huh7 cells [2]", "result": "inhibits"}, {"measurement": "Tumor growth inhibition (TGI) rate", "setting": "Huh7 xenograft; 10 mg/kg IP twice a week for four weeks", "result": 78, "unit": "%"}, {"measurement": "Tumor growth inhibition (TGI) rate", "setting": "Huh7 xenograft; 50 mg/kg IP every three days for 24 days", "result": 75, "unit": "%"}, {"measurement": "Body weight change", "setting": "Huh7 xenograft; xenograft mice, FIG. 6C", "result": "No significant change"}, {"measurement": "inhibition at 5 µM", "setting": "Huh7 cells [3]", "result": 62.5, "unit": "%"}, {"measurement": "inhibition at 5 µM", "setting": "HepG2 cells [4]", "result": 59.5, "unit": "%"}, {"measurement": "Mass shift of TEAD2-YBD C380S variant", "setting": "TEAD2-YBD C380S", "result": "absence of a mass shift"}]}]}
